This is an account of results in patent publication US5314904A (priority 1991, dated 1994).

≈ marks a conversion by molar mass, not a printed value. Read-outs that look alike come from different tables or passages of the source.

For data set [1], the system named is Bacteroides bivius-disiens. Briefly: MIC in vitro, Bacteroides bivius-disiens (NCCLS M11-T2, agar Wilken-Chalgren). The format is cell-based. The conditions noted are these: 40 strains; for MIC: read-out: MIC Range of Concentration Value. An excerpt:
(§1) Forty strains of Bacteroides bivius-disiens, 23 strains of Gardnerella vaginalis, 31 strains of the species Lactobacillus and 13 strains of Mobiluncus, 35 strains (from Iowa) and 25 strains (from Manitoba) of Neisseria gonorrhoeae, 25 strains of Haemophilus ducreyi and 6 strains of Chlamydia trachomatis have been analyzed.
(§2) Forty strains of Bacteroides bivius-disiens, 23 strains of Gardnerella vaginalis, 31 strains of Lactobacillus spp., 13 strains of Mobiluncus spp., 6 strains of Chlamydia trachomatis, 60 strains of Neisseria gonorrhoeae and 25 strains of Haemophilus ducreyi were obtained by culture collections supplied from: […]

The subject of another data set is Mobiluncus spp. Description: MIC in vitro, Mobiluncus spp. (NCCLS M11-T2, agar Wilken-Chalgren). In kind it is cell-based. The conditions noted are these: for MIC: read-out: MIC Range of Concentration Value.
From the text: as §1, §2

For data set [2] the following is noted: cited from earlier work.
In the next data set the test system is Lactobacillus spp. Description: MIC in vitro, Lactobacillus spp. (NCCLS M11-T2, agar Wilken-Chalgren). In kind it is cell-based. The settings on record: for MIC: read-out: MIC Range of Concentration Value.
From the text: as §1, §2

The test system of the next data set is Gardnerella vaginalis. Briefly: MIC in vitro, Gardnerella vaginalis (NCCLS M11-T2, agar Wilken-Chalgren). The format is cell-based. The settings on record: for MIC: read-out: MIC Range of Concentration Value.
From the text: as §1, §2

The test system of a further data set is Haemophilus ducreyi. Description: MIC in vitro, Haemophilus ducreyi (Hoban et al. method). In kind it is cell-based.
From the text: (§3) Forty strains of Bacteroides bivius-disiens, 23 strains of Gardnerella vaginalis, 31 strains of the species Lactobacillus and 13 strains of Mobiluncus, 35 strains (from Iowa) and 25 strains (from Manitoba) of Neisseria gonorrhoeae, 25 strains of Haemophilus ducreyi and 6 strains of Chlamydia trachomatis have been analyzed. The determination of the minimum inhibitory concentration on the strains of the four types of anaerobic bacteria has been carried out according to NCCLS M11-T2 method (National Committee for Clinical Laboratory Standards. Methods for antimicrobial testing of anaerobic bacteria--second edition: Tentative Standard. NCCLS M11-T2, Villanova, Pa. NCCLS; 1989) on agar Wilken-Chalgren (Difco Laboratories, Detroit, Mich.) to which blood has been added.
The strains of Haemophilus ducreyi have been grown on chocolate agar for 24 hours at 35° C. in an atmosphere of carbon dioxide. After each material has been isolated, it is applied on chocolate agar containing appropriate dilution of antibiotic (Hoban D. et al. "In vitro activity of lomefloxacin against Chlamydia trachomatis, Neisseria gonorrhoeae, Haemophilus ducreyi, Mycoplasma hominis and Ureaplasma urealyticum". Diagn. Microbiol. Infect. Dis. 12, 83S-86S, 1989). The plates are incubated in an atmosphere containing carbon dioxide with increasing moisture at 35° C. for 48 hours.
as §2

A further data set concerns Chlamydia trachomatis. Briefly: MIC in vitro, Chlamydia trachomatis (Hoban et al. method). In kind it is cell-based.
From the text: as §3
(§4) Forty strains of Bacteroides bivius-disiens, 23 strains of Gardnerella vaginalis, 31 strains of Lactobacillus spp., 13 strains of Mobiluncus spp., 6 strains of Chlamydia trachomatis, 60 strains of Neisseria gonorrhoeae and 25 strains of Haemophilus ducreyi were obtained by culture collections supplied from:
(§5) The determination of the MIC with respect to Neisseria gonorrhoeae has been carried out according to the NCCLS M7-A2 method, while the determination of th MIC with respect to Chlamydia trachomatis, Mycoplasma hominis, Ureaplasma urealyticum and Haemophilus ducrey has been carried out according to Hoban D. et al. "In vitro activity of lomefloxacin against Chlamydia trachomatis, Neisseria gonorrhoeae, Haemophilus ducreyi, Mycoplasma hominis and Ureaplasma urealyticum." Diagn. Microbiol. Infect. Dis., 12, 83S-86S (1989).

Another data set has as its system Mycoplasma hominis. Briefly: MIC in vitro, Mycoplasma hominis (Hoban et al. method). The format is cell-based. The settings on record: Metamycoplasma hominis.
From the text: as §5

The next data set deals with Ureaplasma urealyticum. Briefly: MIC in vitro, Ureaplasma urealyticum (Hoban et al. method). In kind it is cell-based.
From the text: as §5

For another data set, the system named is Neisseria gonorrhoeae. Briefly: MIC in vitro, Neisseria gonorrhoeae (NCCLS M7-A2). In kind it is cell-based.
From the text: as §1, §4, §5

Usually MIC50 stands for the lowest concentration that inhibits either 50% of growth or 50% of the strains tested, depending on the study. Regarding `CCC[C@@H]1C[C@@H](C(=O)N[C@@H]([C@H]2O[C@H](SC)[C@H](O)[C@@H](O)[C@H]2O)[C@H](C)Cl)N(C)C1` [Clindamycin], the MIC50 in data set [1] was at most 0.06 µg/mL; against Mobiluncus spp. (13 strains), at most 0.06 µg/mL; in the data set with Lactobacillus spp. (31 strains), 0.25 µg/mL (≈ 0.588 µM); in the data set with Gardnerella vaginalis (23 strains), at most 0.06 µg/mL. The MIC90 in data set [1] is under 0.06 µg/mL; in the data set on Mobiluncus spp. (13 strains, read-out: MIC 90%) it was under 0.06 µg/mL; with Lactobacillus spp. (31 strains, read-out: MIC 90%), 4 µg/mL (≈ 9.41 µM); with Gardnerella vaginalis (23 strains, read-out: MIC 90%), under 0.06 µg/mL. The MIC in data set [1] is at most 0.06 µg/mL; in the data set with Mobiluncus spp. (13 strains), at most 0.06 µg/mL; in the data set with Lactobacillus spp. (31 strains), 0.06 to 4 µg/mL (≈ 0.141 to 9.41 µM); in the data set on Gardnerella vaginalis (23 strains), 0.06 to 0.25 µg/mL (≈ 0.141 to 0.588 µM). For the same compound, the side effects entry in data set [2] (compared with drugs currently used) is “serious side effects, particularly on the gastrointestinal tract with serious forms of diarrhea and pseudo-membranous colitis that can even lead to the death of the patient”.
`CO[C@H]1/C=C/O[C@@]2(C)Oc3c(C)c(O)c4c(O)c(c5c(nc6cc(C)ccn65)c4c3C2=O)NC(=O)/C(C)=C\C=C\[C@H](C)[C@H](O)[C@@H](C)[C@@H](O)[C@@H](C)[C@H](OC(C)=O)[C@@H]1C` [Rifaximin, 4-desoxy-4'-methyl-pyrido [1'2':1.2] imidazo [5.4-c] rifamycin SV]: the MIC90 was 0.5 µg/mL (≈ 0.636 µM) in the data set with Haemophilus ducreyi; under 20 µg/mL in the data set on Chlamydia trachomatis (Chlamydia trachomatis, 6 strains); 0.25 µg/mL (≈ 0.318 µM) in data set [1]; at least 64 µg/mL in the data set with Mycoplasma hominis (20 strains); under 0.03 µg/mL with Mobiluncus spp. (13 strains, read-out: MIC 90%); over 64 µg/mL in the data set with Ureaplasma urealyticum (25 strains). Moreover, the MIC90 amounted to 16 µg/mL (≈ 20.4 µM) against Neisseria gonorrhoeae; 0.5 µg/mL (≈ 0.636 µM) against Lactobacillus spp.; 1 µg/mL (≈ 1.27 µM) in the data set with Gardnerella vaginalis (23 strains, read-out: MIC 90%). In addition, the MIC50 against Haemophilus ducreyi (25 strains) was 0.25 µg/mL (≈ 0.318 µM); in [1] it was 0.12 µg/mL (≈ 0.153 µM); against Mycoplasma hominis (20 strains), 64 µg/mL (≈ 81.4 µM); in the data set with Mobiluncus spp. (13 strains), at most 0.03 µg/mL; against Ureaplasma urealyticum (25 strains), 64 µg/mL (≈ 81.4 µM); in the data set with Neisseria gonorrhoeae (60 strains), 0.25 µg/mL (≈ 0.318 µM). Besides, the results for the MIC50 in the data set with Lactobacillus spp. (31 strains) and with Gardnerella vaginalis (23 strains) were 0.12 µg/mL (≈ 0.153 µM) and 0.5 µg/mL (≈ 0.636 µM), respectively. For the same compound, the MIC in the data set with Haemophilus ducreyi (25 strains, read-out: MIC Range of Concentration Value) is 0.03 to 0.5 µg/mL (≈ 0.0382 to 0.636 µM); in the data set on Chlamydia trachomatis (Chlamydia trachomatis, 6 strains, read-out: MIC Range of Concentration Value), 10 to 20 µg/mL (≈ 12.7 to 25.4 µM); in the data set on Chlamydia trachomatis (Chlamydia trachomatis, read-out: M.I.C.) it was over 20 µg/mL; in data set [1] it was 0.03 to 0.5 µg/mL (≈ 0.0382 to 0.636 µM); with Mycoplasma hominis (20 strains, read-out: MIC Range of Concentration Value) it was at least 64 µg/mL; in the data set on Mycoplasma hominis (read-out: M.I.C.), at least 64 µg/mL. Moreover, the MIC with Mobiluncus spp. (13 strains) was at most 0.03 µg/mL; against Ureaplasma urealyticum it was at least 64 µg/mL; in the data set with Lactobacillus spp. (31 strains), 0.3 to 1 µg/mL (≈ 0.382 to 1.27 µM); in the data set on Gardnerella vaginalis (23 strains), 0.25 to 1 µg/mL (≈ 0.318 to 1.27 µM). Moreover, the susceptibility result with Chlamydia trachomatis is “has shown susceptibility to rifaximin”.
Take `Cc1ncc([N+](=O)[O-])n1CCO` [Metronidazole]: the MIC50 in data set [1] was 2 µg/mL (≈ 11.7 µM); in the data set with Mobiluncus spp. (13 strains), over 16 µg/mL; in the data set on Lactobacillus spp. (31 strains) it was over 16 µg/mL; in the data set with Gardnerella vaginalis (23 strains), over 16 µg/mL. Moreover, the MIC90 in data set [1] was 4 µg/mL (≈ 23.4 µM); against Mobiluncus spp., over 16 µg/mL; against Lactobacillus spp., over 16 µg/mL; in the data set with Gardnerella vaginalis, over 16 µg/mL. For the same compound, the results for the MIC (in data set [1]; with Lactobacillus spp. (31 strains)) were 0.5 to 8 µg/mL (≈ 2.92 to 46.7 µM) and over 16 µg/mL, respectively. The side effects result in data set [2] (in vivo) is “serious side effects particularly on the blood and on the central nervous system”.
Turning to `CC1(C)S[C@@H]2[C@H](NC(=O)[C@H](N)c3ccccc3)C(=O)N2[C@H]1C(=O)O` [Ampicillin], the MIC50 was 4 µg/mL (≈ 11.4 µM) in data set [1], at most 0.5 µg/mL with Mobiluncus spp. (13 strains), at most 0.5 µg/mL with Lactobacillus spp. (31 strains) and at most 0.5 µg/mL against Gardnerella vaginalis (23 strains). For the same compound, the MIC90 was 64 µg/mL (≈ 183 µM) in [1]; 4 µg/mL (≈ 11.4 µM) in the data set on Mobiluncus spp. (13 strains, read-out: MIC 90%); 1 µg/mL (≈ 2.86 µM) in the data set with Lactobacillus spp. (31 strains, read-out: MIC 90%); under 0.5 µg/mL in the data set on Gardnerella vaginalis. Moreover, the MIC in the data set with Mobiluncus spp. (13 strains) fell in the range of 0.5 to 4 µg/mL (≈ 1.43 to 11.4 µM); in the data set with Lactobacillus spp. (31 strains), 0.5 to 2 µg/mL (≈ 1.43 to 5.72 µM); with Gardnerella vaginalis (23 strains), 0.5 to 2 µg/mL (≈ 1.43 to 5.72 µM).
